Key:
[1] = molecular target: T1, BAZ2B (Homo sapiens, UniProt Q9UIF8); type: binding; conditions: pH 7.5
T1 construct: Human BRDs were subcloned into bacteria-expressing vectors; made in house

[2] = molecular target: BRD4(1) (Homo sapiens, UniProt O60885); type: binding
[3] = molecular target: BRPF1B (Homo sapiens, UniProt P55201); experiment: biochemical; type: binding
[4] = molecular target: T2, CREBBP (Homo sapiens, UniProt Q92793); type: binding
T2 construct: Human BRDs were subcloned into bacteria-expressing vectors; made in house; host or cells: bacteria

[5] = molecular target: BPTF (Homo sapiens, UniProt Q12830); type: binding
[6] = molecular target: GCN5L2 (Homo sapiens, UniProt Q92830); type: binding; conditions: pH 7.5
[7] = molecular target: SMARCA2; type: binding, human; conditions: pH 7.5
[8] = molecular target: T3, TAF1(1) (Homo sapiens, UniProt P21675); type: binding
T3 construct: Human BRDs were subcloned into bacteria-expressing vectors; made in house; host or cells: bacteria
T3 sequence (P21675 1397-1505 limits assumed): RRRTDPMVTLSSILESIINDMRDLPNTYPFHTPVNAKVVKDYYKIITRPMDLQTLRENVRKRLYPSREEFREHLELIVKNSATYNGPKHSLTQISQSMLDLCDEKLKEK

[9] = molecular target: T4, TAF1(2) (Homo sapiens, UniProt P21675); type: binding
T4 construct: Human BRDs were subcloned into bacteria-expressing vectors; made in house; host or cells: bacteria
T4 sequence (P21675 1519-1628 limits assumed): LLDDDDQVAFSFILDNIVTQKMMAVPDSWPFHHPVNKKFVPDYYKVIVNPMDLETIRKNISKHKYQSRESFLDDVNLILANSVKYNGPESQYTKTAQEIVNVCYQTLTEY

[10] = tested on: K562; type: cell-based, human
[11] = tested on: K562; type: cell-based, human; remark: listed apart in the source
[12] = molecular target: beta 2 (h) (Homo sapiens, UniProt P07550); experiment: biochemical; conditions: read-out: % Inhibition of Control Specific Binding
[13] = tested on: BZD (central); type: binding
[14] = molecular target: BB3 (h) (Homo sapiens, UniProt P32247); experiment: biochemical; conditions: read-out: % Inhibition of Control Specific Binding
[15] = molecular target: CB2 (h) (Homo sapiens, UniProt P34972); experiment: biochemical; conditions: read-out: % Inhibition of Control Specific Binding
[16] = molecular target: CCR2 (h) (Homo sapiens, UniProt P41597); experiment: CEREP binding, agonist radioligand; conditions: read-out: % Inhibition of Control Specific Binding
[17] = molecular target: MC1 (Mus musculus, UniProt Q01727); experiment: biochemical; conditions: read-out: % Inhibition of Control Specific Binding
[18] = molecular target: motilin (h) (Homo sapiens, UniProt O43193); experiment: biochemical; type: binding; conditions: read-out: % Inhibition of Control Specific Binding
[19] = molecular target: NK1 (h) (Homo sapiens, UniProt P25103); experiment: biochemical; conditions: read-out: % Inhibition of Control Specific Binding
[20] = molecular target: EP2 (h) (Homo sapiens, UniProt P43116); experiment: biochemical; conditions: read-out: % Inhibition of Control Specific Binding
[21] = molecular target: LXRbeta (h) (Homo sapiens, UniProt P55055); experiment: biochemical; type: binding; conditions: read-out: % Inhibition of Control Specific Binding
[22] = molecular target: 5-HT1D (Rattus norvegicus, UniProt P28565); experiment: biochemical; conditions: read-out: % Inhibition of Control Specific Binding
[23] = molecular target: sst4 (h) (Homo sapiens, UniProt P31391); experiment: biochemical; conditions: read-out: % Inhibition of Control Specific Binding
[24] = tested on: Ca2+ channel (L, verapamil site) (phenylalkylamine); type: binding
[25] = molecular target: Ca2+ channel (N) (Rattus norvegicus, UniProt Q02294); experiment: biochemical; type: binding; conditions: read-out: % Inhibition of Control Specific Binding
[26] = tested on: SKCa channel; type: binding
[27] = tested on: Na+ channel (site 2); type: binding
[28] = tested on: GABA transporter; type: binding
[29] = molecular target: 5-HT transporter (h) (Homo sapiens, UniProt P31645); experiment: biochemical; conditions: read-out: % Inhibition of Control Specific Binding
[30] = molecular target: BRD4(2) (Homo sapiens, UniProt O60885)
[31] = molecular target: D1 (h) (Homo sapiens, UniProt P21728); experiment: biochemical; conditions: read-out: % Inhibition of Control Specific Binding
[32] = molecular target: MC4 (h) (Homo sapiens, UniProt P32245); experiment: biochemical; conditions: read-out: % Inhibition of Control Specific Binding
[33] = molecular target: 5-HT1B (Rattus norvegicus, UniProt P28564); experiment: biochemical; conditions: read-out: % Inhibition of Control Specific Binding
[34] = molecular target: V1a (h) (Homo sapiens, UniProt P37288); experiment: biochemical; conditions: read-out: % Inhibition of Control Specific Binding
[35] = molecular target: V2 (h) (Homo sapiens, UniProt P30518); experiment: biochemical; conditions: read-out: % Inhibition of Control Specific Binding
Chain of V2 (h) (P30518 whole entry): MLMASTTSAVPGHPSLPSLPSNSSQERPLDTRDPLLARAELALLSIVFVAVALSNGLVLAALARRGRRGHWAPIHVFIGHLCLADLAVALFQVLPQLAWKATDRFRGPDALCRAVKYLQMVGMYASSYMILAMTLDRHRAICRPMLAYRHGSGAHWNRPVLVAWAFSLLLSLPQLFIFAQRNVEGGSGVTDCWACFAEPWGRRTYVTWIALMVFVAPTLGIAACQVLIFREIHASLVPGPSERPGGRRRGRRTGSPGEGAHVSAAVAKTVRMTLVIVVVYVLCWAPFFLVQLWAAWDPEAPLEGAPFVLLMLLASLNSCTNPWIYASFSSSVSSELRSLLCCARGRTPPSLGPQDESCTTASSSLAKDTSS

T2 sequence (Q92793 1085-1192 limits assumed): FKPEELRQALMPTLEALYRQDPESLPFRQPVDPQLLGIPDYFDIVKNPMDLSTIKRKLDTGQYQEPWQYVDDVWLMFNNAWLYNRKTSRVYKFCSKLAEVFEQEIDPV
Chain of BRPF1B (P55201 628-732): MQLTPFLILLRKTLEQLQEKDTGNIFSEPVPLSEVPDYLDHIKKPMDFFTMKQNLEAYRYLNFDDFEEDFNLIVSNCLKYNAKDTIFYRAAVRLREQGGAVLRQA
Chain of beta 2 (h) (P07550 whole entry): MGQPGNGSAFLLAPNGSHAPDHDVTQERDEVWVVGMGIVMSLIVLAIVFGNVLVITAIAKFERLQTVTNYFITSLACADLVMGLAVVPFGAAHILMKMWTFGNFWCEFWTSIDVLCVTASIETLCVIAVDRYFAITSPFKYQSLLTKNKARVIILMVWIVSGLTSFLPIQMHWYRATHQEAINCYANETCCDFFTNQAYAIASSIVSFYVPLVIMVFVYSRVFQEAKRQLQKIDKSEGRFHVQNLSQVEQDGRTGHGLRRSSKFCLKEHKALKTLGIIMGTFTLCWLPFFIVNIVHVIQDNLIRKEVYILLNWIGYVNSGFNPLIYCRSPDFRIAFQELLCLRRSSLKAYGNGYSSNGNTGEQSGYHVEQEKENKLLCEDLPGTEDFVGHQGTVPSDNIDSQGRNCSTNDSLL
Chain of EP2 (h) (P43116 whole entry): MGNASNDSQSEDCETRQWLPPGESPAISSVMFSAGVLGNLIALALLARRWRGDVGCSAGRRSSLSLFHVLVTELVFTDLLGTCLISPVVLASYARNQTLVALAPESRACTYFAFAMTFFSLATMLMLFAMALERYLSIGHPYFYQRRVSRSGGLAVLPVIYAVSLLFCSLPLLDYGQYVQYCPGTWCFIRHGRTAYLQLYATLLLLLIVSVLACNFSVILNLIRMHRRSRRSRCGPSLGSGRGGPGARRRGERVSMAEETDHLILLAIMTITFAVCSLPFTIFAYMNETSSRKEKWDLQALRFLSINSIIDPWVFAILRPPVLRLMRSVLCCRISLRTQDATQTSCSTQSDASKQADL
Chain of CCR2 (h) (P41597 whole entry): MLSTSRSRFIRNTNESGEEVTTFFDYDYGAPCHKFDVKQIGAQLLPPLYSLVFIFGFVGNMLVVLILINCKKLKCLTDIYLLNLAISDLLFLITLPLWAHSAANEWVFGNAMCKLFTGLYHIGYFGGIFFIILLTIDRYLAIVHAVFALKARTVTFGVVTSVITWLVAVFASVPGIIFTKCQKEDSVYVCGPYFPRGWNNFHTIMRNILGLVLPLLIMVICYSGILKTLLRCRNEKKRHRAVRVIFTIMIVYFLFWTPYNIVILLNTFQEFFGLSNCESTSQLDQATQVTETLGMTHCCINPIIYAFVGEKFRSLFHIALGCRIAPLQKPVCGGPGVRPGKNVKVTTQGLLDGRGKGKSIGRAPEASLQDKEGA
Chain of LXRbeta (h) (P55055 whole entry): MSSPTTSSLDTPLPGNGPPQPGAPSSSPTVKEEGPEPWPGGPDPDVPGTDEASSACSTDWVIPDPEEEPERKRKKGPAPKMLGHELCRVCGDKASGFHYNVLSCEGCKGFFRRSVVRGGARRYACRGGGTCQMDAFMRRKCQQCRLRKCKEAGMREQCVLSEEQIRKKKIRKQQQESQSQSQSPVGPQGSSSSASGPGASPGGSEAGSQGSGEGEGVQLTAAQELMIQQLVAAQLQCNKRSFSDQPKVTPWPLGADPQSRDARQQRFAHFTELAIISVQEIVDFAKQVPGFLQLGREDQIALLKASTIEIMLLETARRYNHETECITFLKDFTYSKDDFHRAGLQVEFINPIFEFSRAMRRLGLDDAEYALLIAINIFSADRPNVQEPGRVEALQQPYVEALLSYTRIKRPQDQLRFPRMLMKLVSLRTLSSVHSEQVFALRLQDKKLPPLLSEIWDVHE
Chain of CB2 (h) (P34972 whole entry): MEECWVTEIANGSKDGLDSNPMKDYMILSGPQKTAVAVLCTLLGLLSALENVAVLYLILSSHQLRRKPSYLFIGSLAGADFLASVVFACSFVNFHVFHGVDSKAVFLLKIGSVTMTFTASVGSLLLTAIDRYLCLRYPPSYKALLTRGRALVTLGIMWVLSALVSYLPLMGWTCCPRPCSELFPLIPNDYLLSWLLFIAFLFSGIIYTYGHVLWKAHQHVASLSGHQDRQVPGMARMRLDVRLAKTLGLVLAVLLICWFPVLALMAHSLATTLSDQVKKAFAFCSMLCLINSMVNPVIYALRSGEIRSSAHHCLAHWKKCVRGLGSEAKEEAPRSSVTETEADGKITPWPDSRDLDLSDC
Chain of BB3 (h) (P32247 whole entry): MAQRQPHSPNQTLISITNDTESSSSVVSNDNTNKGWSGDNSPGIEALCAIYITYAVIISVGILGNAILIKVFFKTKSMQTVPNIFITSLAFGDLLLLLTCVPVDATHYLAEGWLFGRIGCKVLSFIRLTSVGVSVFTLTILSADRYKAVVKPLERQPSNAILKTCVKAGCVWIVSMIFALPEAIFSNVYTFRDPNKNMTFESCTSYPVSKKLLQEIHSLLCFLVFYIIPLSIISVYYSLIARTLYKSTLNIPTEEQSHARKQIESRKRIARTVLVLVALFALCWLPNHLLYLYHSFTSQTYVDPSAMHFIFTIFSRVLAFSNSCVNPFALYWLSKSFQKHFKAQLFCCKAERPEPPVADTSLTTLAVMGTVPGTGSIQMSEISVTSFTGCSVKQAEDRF
Chain of 5-HT transporter (h) (P31645 whole entry): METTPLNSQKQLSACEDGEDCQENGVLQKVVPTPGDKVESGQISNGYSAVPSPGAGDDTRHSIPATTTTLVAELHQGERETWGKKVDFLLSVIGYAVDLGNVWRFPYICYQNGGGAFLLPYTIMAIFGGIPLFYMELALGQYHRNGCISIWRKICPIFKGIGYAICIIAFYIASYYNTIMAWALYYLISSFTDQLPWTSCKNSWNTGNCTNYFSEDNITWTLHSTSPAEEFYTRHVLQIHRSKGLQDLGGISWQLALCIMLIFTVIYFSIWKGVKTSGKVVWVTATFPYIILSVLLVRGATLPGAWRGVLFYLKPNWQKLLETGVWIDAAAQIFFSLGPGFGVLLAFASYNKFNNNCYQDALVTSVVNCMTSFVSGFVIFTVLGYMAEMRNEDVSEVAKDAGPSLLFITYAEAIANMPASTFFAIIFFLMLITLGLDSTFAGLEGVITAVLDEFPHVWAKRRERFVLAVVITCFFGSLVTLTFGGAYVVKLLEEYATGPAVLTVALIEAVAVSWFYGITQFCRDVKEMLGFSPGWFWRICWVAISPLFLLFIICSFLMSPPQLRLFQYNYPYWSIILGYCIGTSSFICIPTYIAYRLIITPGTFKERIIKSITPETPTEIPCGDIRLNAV
Chain of 5-HT1B (P28564 whole entry): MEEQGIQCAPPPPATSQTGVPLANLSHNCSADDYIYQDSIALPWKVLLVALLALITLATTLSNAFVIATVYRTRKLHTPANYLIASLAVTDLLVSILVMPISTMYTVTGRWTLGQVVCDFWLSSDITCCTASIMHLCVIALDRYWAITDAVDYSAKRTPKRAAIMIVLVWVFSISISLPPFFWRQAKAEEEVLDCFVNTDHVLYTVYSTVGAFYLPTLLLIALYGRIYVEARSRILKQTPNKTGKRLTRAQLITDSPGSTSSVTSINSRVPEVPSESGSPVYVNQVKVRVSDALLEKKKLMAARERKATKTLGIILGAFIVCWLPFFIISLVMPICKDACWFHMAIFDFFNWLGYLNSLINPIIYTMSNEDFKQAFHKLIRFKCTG
Chain of motilin (h) (O43193 whole entry): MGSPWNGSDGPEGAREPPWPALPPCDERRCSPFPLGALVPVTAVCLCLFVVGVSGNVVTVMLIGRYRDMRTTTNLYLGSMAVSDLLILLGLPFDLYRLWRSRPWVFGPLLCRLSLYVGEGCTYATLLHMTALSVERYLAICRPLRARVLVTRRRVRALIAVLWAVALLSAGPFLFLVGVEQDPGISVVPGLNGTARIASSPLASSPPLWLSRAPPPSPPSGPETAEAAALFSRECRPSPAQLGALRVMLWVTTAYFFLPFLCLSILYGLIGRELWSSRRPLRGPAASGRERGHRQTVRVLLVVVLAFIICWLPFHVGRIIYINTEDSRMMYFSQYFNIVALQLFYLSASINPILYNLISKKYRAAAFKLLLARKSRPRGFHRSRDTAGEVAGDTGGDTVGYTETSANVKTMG
Chain of V1a (h) (P37288 whole entry): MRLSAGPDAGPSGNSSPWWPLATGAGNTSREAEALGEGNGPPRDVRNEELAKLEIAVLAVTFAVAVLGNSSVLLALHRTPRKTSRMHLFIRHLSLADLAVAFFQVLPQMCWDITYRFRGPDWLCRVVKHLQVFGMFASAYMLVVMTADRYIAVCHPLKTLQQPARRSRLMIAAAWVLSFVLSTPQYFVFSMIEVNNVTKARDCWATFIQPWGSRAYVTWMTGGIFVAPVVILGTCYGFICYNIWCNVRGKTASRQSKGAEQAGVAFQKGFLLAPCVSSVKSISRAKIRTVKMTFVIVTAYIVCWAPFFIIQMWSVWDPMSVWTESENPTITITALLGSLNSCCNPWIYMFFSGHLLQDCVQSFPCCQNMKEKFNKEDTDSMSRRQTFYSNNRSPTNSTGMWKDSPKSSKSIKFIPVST

CCOC(=O)Nc1cc(-c2ccc(C)c(NS(C)(=O)=O)c2)nn2c(C)nnc12 [BSP, ethyl (3-methyl-6-(4-methyl-3-(methylsulfonamido)phenyl)-[1,2,4]triazolo[4,3-b]pyridazin-8-yl)carbamate]
KD [1]: Weak binding
N [2]: 0.94 ± 0.002
TΔS [2]: -1.36 kcal/mol
ΔH^obs [2]: -11.09 ± 0.038 kcal/mol
Kd [3]: 312 ± 11.2 nM
N [3]: 1.00 ± 0.003
TΔS [3]: 2.45 kcal/mol
ΔG [3]: -8.57 kcal/mol
ΔH^obs [3]: -6.12 ± 0.021 kcal/mol
N [4]: 1.03 ± 0.011
TΔS [4]: 4.72 kcal/mol
ΔH^obs [4]: -2.91 ± 0.041 kcal/mol
N [5]: 1.07 ± 0.005
TΔS [5]: -3.28 kcal/mol
ΔH^obs [5]: -10.09 ± 0.074 kcal/mol
KD [6]: Weak binding
KD [7]: Weak binding
N [8]: 0.98 ± 0.010
TΔS [8]: 3.60 kcal/mol
ΔG [8]: -6.94 kcal/mol
ΔH^obs [8]: -3.34 ± 0.046 kcal/mol
N [9]: 0.98 ± 0.003
TΔS [9]: -3.80 kcal/mol
ΔG [9]: -10.25 kcal/mol
ΔH^obs [9]: -14.05 ± 0.095 kcal/mol
effect on cell proliferation [10]: No significant effect
effect on cell cycle [11]: little effect on cell cycle
inhibition at 10 µM [12]: 2%
% Inhibition of Control Specific Binding [13]: -8
inhibition at 10 µM [14]: 7%
inhibition at 10 µM [15]: 12%
inhibition at 10 µM [16]: -8%
inhibition at 10 µM [17]: 2%
inhibition at 10 µM [18]: 7%
inhibition at 10 µM [19]: 7%
inhibition at 10 µM [20]: 16%
inhibition at 10 µM [21]: -9%
inhibition at 10 µM [22]: 4%
inhibition at 10 µM [23]: 19%
% Inhibition of Control Specific Binding [24]: -8
inhibition at 10 µM [25]: 16%
% Inhibition of Control Specific Binding [26]: -15
% Inhibition of Control Specific Binding [27]: 4
% Inhibition of Control Specific Binding [28]: 0
inhibition at 10 µM [29]: -15%
N [30]: 0.94 ± 0.001
TΔS [30]: 3.17 kcal/mol
ΔG [30]: -9.77 kcal/mol
ΔH^obs [30]: -6.60 ± 0.018 kcal/mol
inhibition at 10 µM [31]: -13%
inhibition at 10 µM [32]: -23%
inhibition at 10 µM [33]: -13%
inhibition at 10 µM [34]: -6%
inhibition at 10 µM [35]: -11%

— article PMC5061470, “Promiscuous targeting of bromodomains by bromosporine identifies BET proteins as master regulators of primary transcription response in leukemia” (Science Advances, 2016)
